US20240360185A1, “AV3 MUTANT INSECTICIDAL POLYPEPTIDES AND METHODS FOR PRODUCING AND USING SAME” (Vestaron Corporation, priority 2018, published 2024)
Several values for one entry are separate records, joined by “and”; a condition that tells them apart may be missing. Equal values may be shown once. Entries after “also recorded” stand apart in the source; their conditions may differ. Ends that are not written are not given here.

Assays:
[1] = tested on: houseflies (Musca domestica); test: housefly injection assay; type: in vivo; settings: for activities in fly injection assay / toxicity to houseflies by injection: in vivo; for effect on housefly mortality: dose of 10, 50, and 100 nmol/g for 24 hours; for recovery of the knock-down flies: 100 pmol/g dose; for lethal activity to houseflies: injection; for lowest dose to produce knock-down activity: within the first 4 hours post injection
Protocol: An exemplary housefly injection bioassay is as follows: conditioned media is serially diluted to generate full dose-response curves from the housefly injection bioassay. Before injection, adult houseflies (Musca domestica) are immobilized with CO2, and 12-18 mg houseflies are selected for injection. A microapplicator, loaded with a 1 cc syringe and 30-gauge needle, is used to inject 0.5 μL per fly, doses of serially diluted conditioned media samples into houseflies through the body wall of the dorsal thorax. The injected houseflies are placed into closed containers with moist filter paper and breathing holes on the lids, and they are examined by knock-down ratio or by mortality scoring at 24 hours post-injection. Normalized yields are calculated. Peptide yield means the peptide concentration in the conditioned media in units of mg/L. However, peptide yields are not always sufficient to accurately compare the strain production rate. […] The cell density is represented by the light absorbance at 600 nm with a unit of “A” (Absorbance unit).
A Housefly injection assay was performed to compare the activity of Av3b with GenScript Synthetic Av3b. FIG. 33. Adult houseflies were immobilized in CO2 for 10 minutes and then transferred to a CO2 pan to keep them immobilized. Flies with weight between 12-20 mg were picked for injection. The synthetic peptides were diluted in water to proper doses for injection. 0.5 μL peptide solution was injected into housefly at the dorsal thorax using a hand-microapplicator with 1 cc all-glass syringe with 30 gouge straight needle. The injected flies were then transferred to a 2 oz transparent portion container with a wet #4 filter paper. Fly score was accessed at 2 hour, 3 hour, 4 hour and 24 hour post-injection. […] Core-5 and Core-4 synthetic polypeptides were also evaluated in the housefly injection assay. FIG. 34. […] FIG. 36.

Aedes aegypti = test: adult mosquito topical bioassay; type: in vivo; settings: for activity relative to native Av3: 3 hours post application; for Knock-down 50 at 3 hr, Average: Table 5; for Knock-down 50 at 3 hr: Table 5, single determinations; for KD50 at 3-hours: post topical application; for synergy with permethrin: permethrin 500 ppb; for paralysis and kill of adult mosquitos upon topical application: in vivo
Protocol: Native Av3, R1K mutant Av3 (Av3a) and R1K+AC-Val double mutant Av3 (Av3a-C1, or Av3b) were evaluated in the adult mosquito topical bioassay. The adult mosquitoes were ordered from Benzon Research. The adult mosquitoes were immobilized using CO2 gas and transferred onto a CO2 pad with CO2 flowing to keep them immobilized during topical applications. A hand microapplicator equipped with 1 cc glass syringe with a 30 gouge straight needle was used for the application of droplet. 0.25 μl droplet of toxin solution per mosquito was pushed out from the needle and gently applied to the ventral side of the mosquito abdomen. The treated mosquitoes were put into a 2.5 oz. clear cup with moisture filter paper and lid with breathing holes. Score the treated mosquitoes for paralysis or death within 24 hours post-application. […] FIG. 13.

[2] = tested on: crustacean and insect sodium channels; settings: cited from earlier work
[3] = incubation of purified peptide in fermentation beer with untransformed K. lactis; type: physicochemical; settings: 8 days at room temperature
Protocol: The pLB102-YCT-18 strain's apparent expression of two Av3+2 peptides, i.e., Av3+2 and Av3+2−C1, raised the question as to whether the C-Val cleavage observed in Peak 1 (SEQ ID NO: 19) occurred during peptide expression and secretion, or whether it occurred in the spent medium/fermentation beer as a result of endogenous proteases secreted from K. lactis. To answer this question, Av3+2 peptide was purified according to the abovementioned methods, and incubated with the fermentation beer in concert with untransformed K. lactis strain (i.e., a null strain) for 8 days at room temperature (RT). FIG. 4.

houseflies = test: housefly feeding assay (oral toxicity); type: in vivo
Protocol: The oral toxicity of Av3+2−C1 peptide was evaluated in the housefly feeding assay by mixing 20 PPT Av3+2−C1 with fly food (1:1 sugar: dry milk) and observed for 96 hours. Knock-down and dead flies were observed starting at 24-hour post-feeding and accumulated with time. FIG. 19. Unlike the housefly injection bioassay, recovery from paralysis in the feeding assay was not observed, likely due to the fact that the houseflies were continuously dosed in the later bioassay. FIG. 20.

[4] = Table 9, synthetic polypeptides
[5] = 1000 pmol/g dose, overnight observation

Substance: KSCCPCYWGGCPWGQNCYPEGCSGPK [Synthetic Av3b]
- KD50 at 3 hr ([1]; Table 8, synthetic peptide): 633.02 pmol/g
- KD50 at 3 hr [1, 4]: 540 pmol/g
- activities in fly injection assay [1]: showed activities in fly injection assay

Substance: PYWPWY (Pharmacophore mutant) [Core-1]
- effect on housefly mortality [1]: did not appear to have an effect on housefly mortality

Substance: KSCCPCYWGGCPWGQNCYPEGCSGPK [Av3b]
- activity relative to native Av3 (Aedes aegypti; listed as Av3a-C1): two-fold less active; also recorded: about twice as less active
- Knock-down 50 at 3 hr, Average (Aedes aegypti): 81.63 ppm
- Knock-down 50 at 3 hr (Aedes aegypti; listed as Av3a-C1): 86.9 ppm and 86.1 ppm and 71.9 ppm
- KD50 at 3-hours (Aedes aegypti): 71.9 ppm
- KD50 at 3 hr ([1]; Table 8, AAA Calibrate stock at 32.5 mg/mL): 172.22 pmol/g
- KD50 at 3 hr ([1]; Table 8, non-AAA stock at 50 mg/mL): 265.21 pmol/g

Substance: KSCCPCYWGGCPWGQNCYPEGCSGPKV [Av3a]
- activity relative to native Av3 (Aedes aegypti): the same as native Av3
- Knock-down 50 at 3 hr, Average (Aedes aegypti): 109.05 ppm
- KD50 at 3-hours (Aedes aegypti): 38.8 ppm

Substance: RSCCPCYWGGCPWGQNCYPEGCSGPKV [Av3, reference compound]
- Knock-down 50 at 3 hr, Average (Aedes aegypti): 45.98 ppm
- synergy with permethrin (Aedes aegypti): some synergy
- KD50 at 3-hours (Aedes aegypti; listed as Native Av3): 58 ppm and 42.6 ppm
- recovery after maximum knock-down (Aedes aegypti; topical application): no obvious recovery observed thereafter
- time at which knock-down effect reached its maximum (Aedes aegypti; topical application): 1 h
- selectivity for crustacean and insect sodium channels [2]: high selectivity
- recovery of the knock-down flies ([1]; overnight observation): very rare
- KD50 at 4-hours ([1]; housefly injection): 606 pmol/g
- toxicity to houseflies by injection [1]: toxic to houseflies
- lethal activity to houseflies [1]: no potent lethal activity

Substance: GSRSCCPCYWGGCPWGQNCYPEGCSGPKV (not fully specified; ends and bridges not checked) [Av3+2]
- Knock-down 50 at 3 hr, Average (Aedes aegypti): 281.5 ppm
- Knock-down 50 at 3 hr (Aedes aegypti): 230 ppm and 235.7 ppm and 347.7 ppm and 312.6 ppm
- KD50 relative to that observed for native Av3 (Aedes aegypti; at 3-hours): roughly 5 fold
- paralysis and kill of adult mosquitos upon topical application (Aedes aegypti): fast paralyze and eventually kill adult mosquitoes
- synergy with permethrin (Aedes aegypti; peptide 200 ppm): some synergy
- KD50 at 3-hours (Aedes aegypti): 235.71 ppm and 312.57 ppm and 200-300 ppm and 229.9 ppm
- recovery after maximum knock-down (Aedes aegypti; topical application): limited recovery thereafter; also recorded: recovery observed over time; also recorded: not much recovery effects observed thereafter
- recovery of knock-down flies [1, 5]: Recovery of the knock-down flies was observed
- recovery of knock-down flies ([1]; 5000 and 20000 pmol/g doses): No recovery was observed
- paralysis effect in combination with fermentation beer from AaIT1 expression K. lactis strain ([1]; Av3+2 peptide at 500 pmol/g dose): synergistic instead of additive paralysis effect
- KD50 at 4-hours ([1]; housefly injection): 490 pmol/g
- toxicity to houseflies by injection [1]: toxic to houseflies
- lowest dose to produce knock-down activity [1]: 100 pmol/g
- C-Val cleavage / stability [3]: did not result in any apparent C-Val cleavage

Substance: KPYWPWYK (Pharmacophore mutant) [Core-3]
- effect on housefly mortality [1]: did not appear to have an effect on housefly mortality

Substance: KACCPCYWGGCPWGAACYPAGCAAAK (Pharmacophore mutant) [Core 5]
- KD50 at 3 hr [1, 4]: 1621 pmol/g
- activity reduced ([1]; housefly injection): around 3 fold

Substance: RSCCPCYWGGCPWGQNCYPEGCSGPK (ends and bridges not checked; cysteine pairing not given here) [Av3-C1]
- recovery of the knock-down flies ([1]; overnight observation): very rare
- KD50 at 4-hours ([1]; housefly injection): 521 pmol/g
- lethal activity to houseflies [1]: no potent lethal activity

Substance: KACCPCYWAACPWAAACYAAACAAAK (Pharmacophore mutant) [Core 4]
- activities in fly injection assay [1]: dramatically reduced activities

Substance: KPYWPWYKV (Pharmacophore mutant) [Core-2]
- effect on housefly mortality [1]: did not appear to have an effect on housefly mortality

Substance: GSRSCCPCYWGGCPWGQNCYPEGCSGPK (ends and bridges not checked; cysteine pairing not given here) [Av3+2−C1]
- Knock-down 50 at 3 hr, Average (Aedes aegypti): 747.9 ppm
- Knock-down 50 at 3 hr (Aedes aegypti): 952.7 ppm and 543.1 ppm
- paralysis and kill of adult mosquitos upon topical application (Aedes aegypti): fast paralyze and eventually kill adult mosquitoes
- KD50 at 3-hours (Aedes aegypti): 543.12 ppm and 500-900 ppm and 952.69 ppm
- recovery after maximum knock-down (Aedes aegypti; topical application): recovery was observed thereafter
- knock-down and dead flies first observed post-feeding (houseflies; 20 PPT mixed with fly food): 24 h
- oral toxicity to houseflies (houseflies; 20 PPT mixed with fly food, observed for 96 hours): toxic to houseflies when consumed and/or upon oral contact
- recovery from paralysis (houseflies; continuous feeding, 20 PPT): not observed
- recovery of knock-down flies [1, 5]: Recovery of the knock-down flies was observed
- recovery of knock-down flies ([1]; 5000 and 20000 pmol/g doses): No recovery was observed
- KD50 at 4-hours ([1]; housefly injection): 651 pmol/g
- lowest dose to produce knock-down activity [1]: 500 pmol/g
